# Experiments:
# Format in all cases: cell-based
# [1] = tested on: rat NP cells; assay: Western blotting of rat NP cells treated with IL-1β/TNFα with or without inhibitors or growth factors; details: rat-tail NP cells treated with IL-1β and TNFα, Western blot, FIG. 5g-5h
# Experimental: (§1) After euthanasia, healthy rat lumbar/caudal spine IVDs, injured tail discs and bovine caudal IVD NPs were removed aseptically and the nucleus pulposus (NP) was removed separately and enzymatically digested according to methods established by the present inventors^16. Similarly, human degenerative disc NPs were enzymatically digested using Pronase (0.4%, 1 hr at 37° C.) followed by Collagenase II treatment (0.015%, O/N, 37° C.). The following day, the cells were filtered with a 70p cell strainer and cultured within a hypoxic incubator (NuAire, MN, USA) in 3.5% O2, 5% CO2, in Advanced Dulbecco's modified Eagle's medium (ADMEM) supplemented with 8% fetal bovine serum (FBS) and penicillin and streptomycin (100 U/mL). For treatments, the cells were either cultured in serum free ADMEM (no treatment controls) or treated with interleukin-1β (IL-1β, 10 ng/mL), tumor necrosis factor-alpha (TNFα, 50 ng/mL), connective tissue growth factor (CTGF, 10-100 ng/mL), Wnt-inducible soluble protein 2 (WISP2, 10-100 ng/mL) or transforming growth factor beta 1 (TGFβ1, 5-20 ng/mL) for various time points under hypoxic conditions.
# (§2) Equal amounts of whole cell or tissue lysates prepared using RIPA lysis buffer were subjected to Western blotting as described earlier^18,19. Total lysates (30 μg) were resolved on 10% sodium dodecyl sulphate-polyacrylamide gels (SDS-PAGE) under reducing conditions and then proteins were electro-transferred onto polyvinyledendifluoride (PVDF) membranes (BioRad, CA). After blocking with 5% non-fat powdered milk in Tris-buffered saline (TBS, 0.1 M, pH=7.4), blots were incubated with rabbit or goat polyclonal/mouse monoclonal primary antibodies at 4° C. overnight. […] Blots were washed three times with TTBS for 15 minutes and protein bands were detected by the enhanced chemiluminescence method (BioRad, CA) on Kodak Hyperfilm.
# [2] = tested on: human degenerative disc NP cells; assay: Western blotting of human degenerative disc NP cells; details: within 24 hrs
# Experimental: as §1, §2
# [3] = tested on: bovine degenerative disc NP cells; assay: MTT cell viability assay; details: CTGF 100 ng/ml, TGFβ1 10 ng/ml, 48 hrs-72 hrs
# Experimental: (§3) Nucleus pulposus cells (rat, bovine and human) were plated in 96-well flat bottom plates in order to evaluate the effect of treatment with growth factors in cell viability and proliferation assays. Rat NP cells were treated with CTGF, WISP-2 and TGFβ1 in a dose (1 ng/mL-100 ng/mL) and time dependent manner (24 hrs-96 hrs) to determine the optimum dose and time for the assessment of these growth factors on viability. Cell viability was determined using 3-(4,5-dimethylthiazol-2-yl)-2,5-diphenyltetrazolium bromide (MTT, Sigma-Aldrich, USA) as previously described^44. A BrdU-ELISA (colorimetric) assay (Cat #ab126556, Abcam) was used for determining the effect of treatment with CTGF or TGFβ1 on human and rat NP cells (healthy/injured) following the manufacturer's instructions. Briefly, NP cells were treated with CTGF or TGFβ1 alone or in combination for 48 hrs following addition of BrdU reagent O/N in each well. Incorporated BrdU in DNA of proliferating cells was determined using anti-BrdU antibody and quantified by ELISA as per the manufacturer's instructions.
# [4] = tested on: rat-tail disc NP cells (healthy/injured); assay: MTT cell viability assay; details: CTGF 100 ng/ml, TGFβ1 10 ng/ml, 48 hrs-72 hrs
# Experimental: as §3
# [5] = tested on: human degenerated disc NP cells; assay: BrdU-ELISA cell proliferation assay; details: 72 hrs
# Experimental: as §3
# [6] = tested on: rat NP cells (healthy/injured); assay: BrdU-ELISA cell proliferation assay; details: rat-tail (healthy/injured) NP cells, 72 hrs
# Experimental: as §3
# [7] = tested on: human degenerative disc NP cells; assay: Caspase 3/7 Lumi-Glo assay, cytokine induced; details: 48 hrs
# Experimental: (§4) Apoptosis induced in NP cells (rat and human) as result of treatment with pro-inflammatory cytokines (IL-1β and TNFα) was determined using Caspase 3/7 and Caspase 9 specific Lumi-Glo assays (Promega, Madison). Briefly, NP cells were plated and treated with either IL-1β alone or in combination with TNFα only or in presence of CTGF and TGFβ1 for 48 hrs, followed by addition of specific reagents for Caspase 3/7 and Caspase 9 as per the manufacturer's instructions. Cells were incubated for another 4 hrs at 37° C., and plates were read in a multi-well luminescence plate reader.
# [8] = tested on: rat degenerative disc NP cells; assay: Caspase 3/7 Lumi-Glo assay, cytokine induced; details: 48 hrs
# Experimental: as §4
substance,measurement,setting,value
"TGFβ1: Human recombinant transforming growth factor beta 1, Peprotech cat #100-21, identified in NCCM","expression of MMP-3, MMP-13 and Cox2 proteins in presence of growth factor",[1],reduced expression
same,collagen 2 expression (Western blotting),[2],increase
same,cell viability (MTT),[3],increased the viability
same,cell viability (MTT),[4],increased the viability
same,DNA synthesis (BrdU incorporation),[5],Significant increase
same,DNA synthesis (BrdU incorporation),[6],Significant increase
same,cytokine (IL-1β and TNFα)-induced caspase 3/7 activity,[7],significant decrease
same,cytokine (IL-1β and TNFα)-induced caspase 3/7 activity,[8],significant decrease

# From US12465618B2, “Compositions and methods for degenerative disc regeneration” (University Health Network, priority 2015, dated 2025)
